# Test results from US6541471B1, “Benzenesulphonamide compounds” (Les Laboratoires Servier, priority 2001, dated 2003).
# Legend:
# [1] = tested on: platelet aggregation produced by 5-hydroxytryptamine in human platelet-rich plasma (PRP); assay: Platelet aggregation in man induced by 5-hydroxytryptamine; assay type: cell-based; settings: 5-hydroxytryptamine 10 μM in the presence of 0.3 μM adenosine diphosphate and 1 μM adrenalin, read-out: IC50, inhibition of platelet aggregation produced by 5-hydroxytryptamine
# Experimental: (§1) Venous blood is obtained from human volunteers who have not taken aspirin for at least 14 days prior to the experiment. The blood is removed over sodium citrate (0.109 M) (1 vol. of citrate over 9 vol. of blood). Platelet-rich plasma (PRP) is obtained by centrifugation (20° C.) at 200 g for 10 minutes. The number of platelets is on average 250000 PL/mm^3. The PRP is stored at room temperature until the test and is used within 2 hours of having been taken. The TXA2 agonist U46619 is used at a concentration of 1 μM and 5-hydroxytryptamine is used at a concentration of 10 μM, the latter in the presence of 0.3 μM adenosine diphosphate and 1 μM adrenalin.
# [2] = tested on: platelet aggregation induced by the TXA2 agonist U46619 in human platelet-rich plasma (PRP); assay: Platelet aggregation in man induced by the TXA2 agonist U46619; assay type: cell-based; settings: U46619 1 μM, read-out: IC50, inhibition of platelet aggregation induced by the TXA2 agonist
# Experimental: as §1
structure (smiles),measurement,setting,value
"CN(C)CCCOc1ccccc1CCc1cc(CCNS(=O)(=O)c2ccc(Cl)cc2)cc(CCC(=O)O)c1 [Example 2, 3-[3-(2-{[(4-Chlorophenyl)sulphonyl]amino}ethyl)-5-(2-{2-[3-(dimethylamino)propoxy]phenyl}ethyl)phenyl]propanoic acid]",IC50,[1],960 nM
same,IC50,[2],3300 nM
